Values quoted from earlier work, collected in the CATMoS acute toxicity set (Mansouri et al. 2021).
Values joined by “and” are separate entries in the source; they are usually repeats but may differ in a detail not shown here. Identical values can stand only once.

Test: rat acute oral toxicity
Settings: in vivo
From the text: […]The data set underlying the modeling effort for this project was initially compiled by NICEATM and U.S. EPA’s CCTE. Briefly, LD50 data were collected from rat acute oral systemic toxicity tests, including limit tests, ranges/confidence intervals, and discrete LD50 values. The full data set included 21,200 LD50 entries for 15,688 substances. […] Data were reviewed to ensure that LD50 values with obvious errors in the extracted data such as unit conversion errors (e.g., comma and decimal separator misplacements) were either fixed or removed. After this review, 16,209 LD50 values remained. Many of the chemicals represented had multiple LD50 entries, requiring that a single representative value per Chemical Abstracts Service Registry Number (CASRN) identifier be defined to facilitate modeling efforts. Based on ATWG feedback and to define the representative LD50 as a protective value while accounting for the distribution across multiple LD50s, the median of the lowest quartile was computed using only discrete LD50 values (omitting limit test data and range and confidence interval data). A detailed summary of the data compilation is available online on the NICEATM webpage dedicated to the collaborative modeling project (NTP 2020).
[…][…] For categorical designations, limit test and range/confidence interval LD50 data were integrated wherever possible. As such, the number of chemicals with end point values/calls varies across the modeling end points (Table 3) based on whether chemicals had representative LD50 values and/or other data. If a chemical had both, the representative value was used to determine categorical calls rather than limit test data. Some data were useable only for certain end points and categories depending on the thresholds. For example, ranges that spanned multiple hazard categories were considered only for the binary (very toxic/nontoxic) end points and omitted from rendering a determination for hazard category assignment.
[…]The final data set comprising 11,992 chemicals was split into training and evaluation sets […], respectively. This process was performed semirandomly by ordering chemicals based on the five end points (categorical and continuous LD50 values) and partitioning every fourth record into the evaluation set accordingly. This approach was taken to ensure an equivalent distribution of the LD50 values and the different hazard categories between the training and the evaluation sets without supervised sampling of the chemicals based on structures (Figure 1A). The sources of the chemical structures were also kept equivalent between the two sets, with chemical structures obtained from DSSTox, being the highest quality, representing over 75% of each set (Figure 1B).

SMILES | LD50
CCC(=O)O[C@H]1[C@H](O[C@@H]2[C@@H](C)[C@H](O[C@H]3C[C@@](C)(OC)[C@@H](O)[C@H](C)O3)[C@@H](C)C(=O)O[C@H](CC)[C@@](C)(O)[C@H](O)[C@@H](C)C(=O)[C@H](C)C[C@@]2(C)O)O[C@H](C)C[C@@H]1N(C)C | 1450 mg/kg
COC(=O)C(C)N(C(=O)c1ccccc1)c1ccc(F)c(Cl)c1 (centres undefined) | 1200 mg/kg
CCCSP(=O)(OC)OC | 9.4 mg/kg
Cc1ccc(OC(=O)c2ccccc2)cc1 | 2640 mg/kg
CN=C(O)O/N=C1/COCS1 | 49 mg/kg
CCOc1ccccc1OCCN[C@H](C)Cc1ccc(OC)c(S(N)(=O)=O)c1 | 650 mg/kg
CN1CCN(c2c(F)cc3c(=O)c(C(=O)O)cn4c3c2SCC4)CC1 | 501 mg/kg
O=C1NCCN1/N=C/c1ccc([N+](=O)[O-])o1 | 1680 mg/kg
Cc1c(-c2ccccc2)oc2c(C(=O)O)cccc2c1=O | 1660 mg/kg
CCCCCCCCOC(=O)Oc1ccc([N+](=O)[O-])cc1[N+](=O)[O-] | 196 mg/kg
CCCP(=O)(CCC)CCC | 1410 mg/kg
CCOC(=O)CSP(=S)(OCC)OCC | 1100 mg/kg
CCOC(=O)Nc1ccco1 | 1980 mg/kg
CC(C)N(N=O)C(C)C | 850 mg/kg
O=C(CCBr)N1CCN(C(=O)CCBr)CC1 | 220 mg/kg
NC(=O)C(O)(c1ccccc1)c1ccccc1 | 1550 mg/kg
CCCCOC(=O)CC(C(=O)OCCCC)P(=O)(OCCCC)OCCCC (centres undefined) | 25000 mg/kg
CN1CCN(C2=Cc3ccccc3Sc3ccc(Cl)cc32)CC1 | 115 mg/kg
COc1nccnc1NS(=O)(=O)c1ccc(N)cc1 | 2740 mg/kg
COc1ccnc(CS(=O)c2nc3cc(OC(F)F)ccc3[nH]2)c1OC (centres undefined) | 747 mg/kg
C1=CCC=C1 | 113 mg/kg
CC(=O)C(N=Nc1ccc(-c2ccc(N=NC(C(C)=O)C(=O)Nc3ccc(C)cc3)c(Cl)c2)cc1Cl)C(=O)Nc1ccc(C)cc1 (centres undefined) | 2230 mg/kg
CCOC(=O)C(CCc1ccccc1)NC(C)C(=O)N1C(C(=O)O)CC2CCCCC21 (centres undefined) | 2500 mg/kg
CNC(=O)Oc1cc([N+](C)(C)C)ccc1C | 2.5 mg/kg
CC(C)N=C1SC(=NOC(=O)N(C)SN(C)C(=O)ON=C2SC(=NC(C)C)SC2(C)C)C(C)(C)S1 | 113 mg/kg
C=COCCOCCO | 4930 mg/kg

SMILES | LD50
CC(C)C(=O)OCc1ccccc1 | 2850 mg/kg
CNC(=O)Oc1ccccc1CCCSC | 220 mg/kg
CCCCOC(=O)C(Cl)(Cl)C(Cl)=C(Cl)Cl | 2090 mg/kg
CNC(=O)OC1C2(C)CCC(C2)C1(C)C (centres undefined) | 500 mg/kg
COC(C=Cc1ccccc1)OC | 3700 mg/kg
O=[N+]([O-])c1cccc2[nH]c(C(F)(F)F)nc12 | 10.6 mg/kg
O=c1n(CC2CO2)c(=O)n(CC2CO2)n1CC1CO1 (centres undefined) | 250 mg/kg
O=C(OCc1ccccc1)c1sc(Cl)nc1C(F)(F)F | 5010 mg/kg
C=Cc1ccccn1 | 100 mg/kg
COc1cc(C(=O)N(C)C)nn1-c1cccc(Cl)c1 | 790 mg/kg
CCC(CC)C(=O)NC(=Cc1ccc(OC)cc1)C(=O)O | 4000 mg/kg
O=P(O)(O)CCCl | 2200 mg/kg
Cn1c2ccccc2c2cc(N)ccc21 | 347 mg/kg
CCN1CN(CO)C(=O)N(CO)C1 | 8220 mg/kg
CN1CCN(CC(=O)N/N=C/c2ccc([N+](=O)[O-])o2)CC1 | 990 mg/kg and 960 mg/kg and 833 mg/kg
Nc1ccc(N)cc1 | 80 mg/kg and 147 mg/kg
Cc1cccc(C)c1N(COC(C)C)C(=O)CCl | 975 mg/kg
Cc1ccccc1-n1c(CF)nc2ccc(N)cc2c1=O | 249 mg/kg
BrCC=CCBr | 75 mg/kg
CCC(=O)Nc1ncc(Cl)s1 | 316 mg/kg
CN(C)N=O | 37 mg/kg
CCN1CN1CC (centres undefined) | 4000 mg/kg
NNC(=O)[C@@H](N)CS | 1050 mg/kg
N#CCc1ccccc1 | 270 mg/kg
Nc1c(I)cc(I)c(C(=O)N(CCC(=O)O)c2ccccc2)c1I | 2800 mg/kg
CC(C)NCC1CCc2cc(CO)c([N+](=O)[O-])cc2N1 (centres undefined) | 30 mg/kg

SMILES | LD50
COP(=S)(OC)SCn1nc(Cl)c(Cl)cc1=O | 12000 mg/kg
COP(=O)(SC)SC | 26 mg/kg
CN(N=O)C(=O)NC(N)=O | 450 mg/kg
N#CSc1cccc(C(=O)O)c1 | 73 mg/kg
O=C1c2ccccc2C(=O)c2c1ccc1c2[nH]c2ccc3c4ccc5c6c(ccc(c(=O)c3c21)c46)c1ccc2c(=O)c3ccccc3c3nn5c1c23 | 11200 mg/kg
Clc1ccc(Sc2cc(Cl)c(Cl)cc2Cl)cc1 | 3960 mg/kg
COc1cc(OC)cc(OCC(O)CO)c1 (centres undefined) | 2100 mg/kg
COc1cccc(C(=O)CCN[C@@H](C)[C@H](O)c2ccccc2)c1 | 500 mg/kg
ClC1=C(Cl)C2(Cl)C(C(Cl)Cl)CC1(Cl)C2(Cl)Cl (centres undefined) | 1600 mg/kg
N#CC1CC=CCC1 (centres undefined) | 460 mg/kg
Cn1c2c(c3cc(N)ccc31)CCCC2 | 229 mg/kg
O=C(O)CN(CCN(CC(=O)O)CC(=O)O)CCN(CC(=O)O)CC(=O)O | 4550 mg/kg
CCCC(C)OP(=S)(OC)OC (centres undefined) | 311 mg/kg
O=C(O)CCC(=O)OC1CCCCC1 | 6500 mg/kg
Cc1ncc2c(c1O)CSSC2 | 1110 mg/kg
COC(C)CCOC(C)=O (centres undefined) | 4210 mg/kg
CC(Oc1cccc2ccccc12)C(N)N=O (centres undefined) | 108 mg/kg
CCCCC(CC)COP(=O)(O)OCC(CC)CCCC (centres undefined) | 4940 mg/kg
O=S(=O)(O)c1cc(Cl)ccc1C=Cc1ccc(-n2nc3cc(S(=O)(=O)O)c4ccccc4c3n2)cc1S(=O)(=O)O | 13700 mg/kg
O=C=Nc1ccc(Cc2ccc(N=C=O)cc2N=C=O)cc1 | 20000 mg/kg
CN1c2ccccc2Sc2ccc(CC(=O)O)cc21 | 495 mg/kg
Cc1ccc(Cl)c(OCC(O)CNC(C)(C)C)c1 (centres undefined) | 518 mg/kg
NCCCOCCCCOCCCN | 3450 mg/kg
Clc1ccc(N2CCN(C/C=C/c3ccccc3)CC2)nn1 | 483 mg/kg
O=S(=O)(O)c1cc(O)ccc1O | 7500 mg/kg
C=C(F)CO | 130 mg/kg

SMILES | LD50
CCCCCCCCCCCCCCCCCC[N+](C)(C)Cc1ccccc1 | 1250 mg/kg
COc1ccc2c(c1)CCC(c1ccccc1)=C2c1ccc(OCCN2CCCC2)cc1 | 302 mg/kg
CCCCn1c(=O)n(CCC)c(=O)c2c(NC)n(C(=O)OC)nc21 | 2380 mg/kg
COCCNC(=O)c1nc2c(N)nc(-c3ccccc3)nc2nc1NCCOC | 5010 mg/kg
CCN(CC)N=Nc1ccccc1 | 520 mg/kg
N#CCCNC(=O)CCl | 410 mg/kg
C1CS1 | 178 mg/kg
N#Cc1cc(Cl)cc2[nH]c(C(F)(F)F)nc12 | 4.79 mg/kg
Cc1cccc(C)c1N(C(=O)CCl)C1CCOC1=O (centres undefined) | 2600 mg/kg
S=c1[nH]c2ccccc2[nH]1 | 300 mg/kg
O[C@H]([C@H](O)[C@@H]1CO1)[C@H]1CO1 (racemic) | 14 mg/kg
CCCCOCC(C)OCC(C)OCC(C)O (centres undefined) | 1840 mg/kg
CCOc1ccc(Cc2nc(C)cc3cc(OC)c(OC)cc23)cc1OC | 1960 mg/kg and 2070 mg/kg
CC[N+](C)(C)CCC(C(N)=O)(c1ccccc1)c1ccccc1 | 1350 mg/kg
Cc1ncoc1C#N | 735 mg/kg
O=C(O)c1cc(C(=O)O)cc(S(=O)(=O)O)c1 | 2600 mg/kg and 6450 mg/kg
S=P(OCCCl)(OCCCl)OCCCl | 820 mg/kg
CCOP(=S)(OCC)Oc1ccc(N)cc1 | 450 mg/kg
c1ccsc1 | 1400 mg/kg
C=CCOC(=O)CC(SP(=S)(OC)OC)C(=O)OCC(C)SP(=S)(OC)OC (centres undefined) | 762 mg/kg
COC(=O)CC(SP(=O)(OC)OC)C(=O)OC (centres undefined) | 103 mg/kg
CCCC(=O)OC(=C(Cl)Cl)P(=O)(OC)OC | 1100 mg/kg
Cc1cc(S(=O)(=O)c2ccccc2)ccc1NS(=O)(=O)C(F)(F)F | 633 mg/kg
ClCC1OC1CCl (centres undefined) | 710 mg/kg
CNC(=O)Oc1ccc(C)c(N(C)C)c1 | 46 mg/kg
Cc1c(O)cc([N+](=O)[O-])cc1[N+](=O)[O-] | 25 mg/kg
